Experimental data as given in patent US9051310B2, “Nicotinamide derivative or salt thereof” (FUJIFILM Corporation, priority 2011, dated 2015).

The compounds below were run against T1, glutathione S-transferase (GST)-linked full-length human Syk protein (Homo sapiens, UniProt P43405) (assay: Syk enzyme assay). Conditions: 0.83 nM Syk, time-resolved fluorescence; read-out: IC50 of Syk-inhibitory activity.
T1 construct: glutathione S-transferase (GST)-linked full-length human Syk protein; purchased Carna Biosciences; host or cells: Baculovirus expression system
Format: biochemical
Description: A glutathione S-transferase (GST)-linked full-length human Syk protein (Carna Biosciences), which had been generated using a Baculovirus expression system, was used in the Syk enzyme assay.
7.5 μl of a reaction solution (0.83 nM Syk, 20 mM HEPES, 10 mM MgCl2, 50 mM NaCl, 2 mM DTT, 0.05% BSA, pH 7.0) containing a Syk protein and a predetermined concentration of a test compound was shaken for 2 minutes, and it was then left at rest at room temperature for 13 minutes. Thereafter, 0.5 μM substrate peptide (Biotin-[…]-NH2) and 5 μL of a solution containing 67.5 μM ATP were added to the reaction solution, and the obtained mixture was then shaken for 2 minutes. The reaction solution was further left at rest at room temperature for 40 minutes, so as to carry out an enzyme reaction.
Thereafter, 50 μL of a reaction termination solution [60 nM APC-SA, 0.45 μg/mL Eu-PT66, 30 mM HEPES (pH 7.0), 150 mM KF, 30 mM EDTA, 0.15% BSA, 0.075% Tween20] containing Allophycocyanin-Streptavidin (APC-SA; PerkinElmer) and an Eu-W1024-labeled anti-phosphotyrosine PT66 antibody (Eu-PT66; PerkinElmer) was added to the reaction solution to terminate the enzyme reaction. At the same time, the reaction solution was left at rest at room temperature for 1 hour, so as to carry out an antigen-antibody reaction. Thereafter, using EnVision (PerkinElmer), the level of time-resolved fluorescence was measured at 615 nm and 665 nm, so that the phosphorylation of the substrate peptide was measured.
The following are used in Table 5 to denote standards for evaluating IC50 of Syk-inhibitory activity. • A: Up to 10 nM • B: 10 to 50 nM • C: 50 to 100 nM

`COCCn1nc(OC(F)F)c2cc(Nc3nc(N[C@H](C4CC4)[C@H](C)N)c(F)cc3C(N)=O)ccc21` [Example 2-176, 6-(((1R,2S)-2-amino-1-cyclopropylpropyl)amino)-2-((3-(difluoromethoxy)-1-(2-methoxyethyl)-1H-indazol-5-yl)amino)-5-fluoronicotinamide] and `COCCn1nc(OC(F)F)c2cc(Nc3nc(N[C@H](CC(C)C)[C@H](C)N)c(F)cc3C(N)=O)ccc21` [Example 2-177, 6-(((2S,3R)-2-amino-5-methylhexan-3-yl)amino)-2-((3-(difluoromethoxy)-1-(2-methoxyethyl)-1H-indazol-5-yl)amino)-5-fluoronicotinamide] cannot be ordered by IC50: less than 10 nM for the first, less than 10 nM for the second.

`CCOC[C@@H](Nc1nc(Nc2cnc(C)c(-n3nccn3)c2)c(C(N)=O)cc1F)[C@H](C)N` [Example 2-183, 6-(((2S,3S)-3-amino-1-ethoxybutan-2-yl)amino)-5-fluoro-2-((6-methyl-5-(2H-1,2,3-triazol-2-yl)pyridin-3-yl)amino)nicotinamide] and `CC[C@@H](Nc1nc(Nc2cnc(OCCOC)c(-n3nccn3)c2)c(C(N)=O)cc1F)[C@H](C)N` [Example 2-202, 6-(((2S,3R)-2-aminopentan-3-yl)amino)-5-fluoro-2-((6-(2-methoxyethoxy)-5-(2H-1,2,3-triazol-2-yl)pyridin-3-yl)amino)nicotinamide] fall in the same range of IC50: 50 to 100 nM for the first, 50 to 100 nM for the second.

`CCCC[C@@H](Nc1nc(Nc2cc(F)c3c(c2)c(N(C)C)nn3C)c(C(N)=O)cc1F)[C@H](C)N` [Example 2-189, 6-(((2S,3R)-2-aminoheptan-3-yl)amino)-2-((3-(dimethylamino)-7-fluoro-1-methyl-1H-indazol-5-yl)amino)-5-fluoronicotinamide] and `CC(C)C[C@@H](Nc1nc(Nc2cc(F)c3c(c2)c(N(C)C)nn3C)c(C(N)=O)cc1F)[C@H](C)N` [Example 2-190, 6-(((2S,3R)-2-amino-5-methylhexan-3-yl)amino)-2-((3-(dimethylamino)-7-fluoro-1-methyl-1H-indazol-5-yl)amino)-5-fluoronicotinamide] cannot be ordered by IC50: less than 10 nM for the first, less than 10 nM for the second.

`C[C@H](N)[C@@H](CC1CC1)Nc1nc(Nc2cc(F)c3c(c2)c(N(C)C)nn3C)c(C(N)=O)cc1F` [Example 2-191, 6-(((2R,3S)-3-amino-1-cyclopropylbutan-2-yl)amino)-2-((3-(dimethylamino)-7-fluoro-1-methyl-1H-indazol-5-yl)amino)-5-fluoronicotinamide] and `CC[C@H](N)[C@@H](CC)Nc1nc(Nc2cc(F)c3c(c2)c(N(C)C)nn3C)c(C(N)=O)cc1F` [Example 2-195, 6-(((3R,4S)-4-aminohexan-3-yl)amino)-2-((3-(dimethylamino)-7-fluoro-1-methyl-1H-indazol-5-yl)amino)-5-fluoronicotinamide] fall in the same range of IC50: 10 to 50 nM for the first, 10 to 50 nM for the second.

First: CCOc1ncc(Nc2nc(N[C@H](CC(C)C)[C@H](C)N)c(F)cc2C(N)=O)cc1-n1ccnn1 [Example 2-199, 6-(((2S,3R)-2-amino-5-methylhexan-3-yl)amino)-2-((6-ethoxy-5-(1H-1,2,3-triazol-1-yl)pyridin-3-yl)amino)-5-fluoronicotinamide]
Second: CCOc1ncc(Nc2nc(N[C@H](CC)[C@H](C)N)c(F)cc2C(N)=O)cc1-n1ccnn1 [Example 2-206, 6-(((2S,3R)-2-aminopentan-3-yl)amino)-2-((6-ethoxy-5-(1H-1,2,3-triazol-1-yl)pyridin-3-yl)amino)-5-fluoronicotinamide]
The IC50 of the first is lower: less than 10 nM for the first, 10 to 50 nM for the second.

`CCOc1ncc(Nc2nc(N[C@H](CC)[C@H](C)N)c(F)cc2C(N)=O)cc1-n1cccn1` [Example 2-200, 6-(((2S,3R)-2-aminopentan-3-yl)amino)-2-((6-ethoxy-5-(1H-pyrazol-1-yl)pyridin-3-yl)amino)-5-fluoronicotinamide] and `CCC[C@@H](Nc1nc(Nc2cnc(OCC)c(-n3cccn3)c2)c(C(N)=O)cc1F)[C@H](C)N` [Example 2-201, 6-(((2S,3R)-2-aminohexan-3-yl)amino)-2-((6-ethoxy-5-(1H-pyrazol-1-yl)pyridin-3-yl)amino)-5-fluoronicotinamide] fall in the same range of IC50: 10 to 50 nM for the first, 10 to 50 nM for the second.

`CCC[C@@H](Nc1nc(Nc2cnc(OCCOC)c(-n3nccn3)c2)c(C(N)=O)cc1F)[C@H](C)N` [Example 2-203, 6-(((2S,3R)-2-aminohexan-3-yl)amino)-5-fluoro-2-((6-(2-methoxyethoxy)-5-(2H-1,2,3-triazol-2-yl)pyridin-3-yl)amino)nicotinamide] and `CC[C@@H](Nc1nc(Nc2cnc(OC)c(-n3ccnn3)c2)c(C(N)=O)cc1F)[C@H](C)N` [Example 2-204, 6-(((2S,3R)-2-aminopentan-3-yl)amino)-5-fluoro-2-((6-methoxy-5-(1H-1,2,3-triazol-1-yl)pyridin-3-yl)amino)nicotinamide] fall in the same range of IC50: 10 to 50 nM for the first, 10 to 50 nM for the second.

First: CN(C)c1nn(C)c2ccc(Nc3nc(N[C@@H]4CCOC[C@@H]4N)c(F)cc3C(N)=O)cc12 [Example 2-212, 6-(((3R,4R)-3-aminotetrahydro-2H-pyran-4-yl)amino)-2-((3-(dimethylamino)-1-methyl-1H-indazol-5-yl)amino)-5-fluoronicotinamide]
Second: CC[C@H](N)[C@@H](C)Nc1nc(Nc2cnc3c(c2)c(OC)nn3C)c(C(N)=O)cc1F [Example 2-257, 6-(((2R,3S)-3-aminopentan-2-yl)amino)-5-fluoro-2-((3-methoxy-1-methyl-1H-pyrazolo[3,4-b]pyridin-5-yl)amino)nicotinamide]
The IC50 of the first is lower: less than 10 nM for the first, 50 to 100 nM for the second.

`Cc1ncc(Nc2nc(N[C@H](C)[C@@H](N)C3CC3)c(F)cc2C(N)=O)cc1-n1nccn1` [Example 2-226, 6-(((1S,2R)-1-amino-1-cyclopropylpropan-2-yl)amino)-5-fluoro-2-((6-methyl-5-(2H-1,2,3-triazol-2-yl)pyridin-3-yl)amino)nicotinamide] and `COCCOc1cc(Nc2nc(N[C@H](C)[C@@H](N)C3CC3)c(F)cc2C(N)=O)ccn1` [Example 2-228, 6-(((1S,2R)-1-amino-1-cyclopropylpropan-2-yl)amino)-5-fluoro-2-((2-(2-methoxyethoxy)pyridin-4-yl)amino)nicotinamide] fall in the same range of IC50: 50 to 100 nM for the first, 50 to 100 nM for the second.

Compared with `C[C@H](N)[C@H](Nc1nc(Nc2cc(N3CCOCC3)ncc2F)c(C(N)=O)cc1F)C1CC1` [Example 2-234, 6-(((1R,2S)-2-amino-1-cyclopropylpropyl)amino)-5-fluoro-2-((5-fluoro-2-morpholinopyridin-4-yl)amino)nicotinamide], `CC(C)C[C@@H](Nc1nc(Nc2cnc(N3CCOCC3)c(F)c2)c(C(N)=O)cc1F)[C@H](C)N` [Example 2-237, 6-(((2S,3R)-2-amino-5-methylhexan-3-yl)amino)-5-fluoro-2-((5-fluoro-6-morpholinopyridin-3-yl)amino)nicotinamide] is lower in IC50: 50 to 100 nM for the first, 10 to 50 nM for the second.

Compared with `CC[C@@H](Nc1nc(Nc2cnc3c(c2)c(C)nn3C)c(C(N)=O)cc1F)[C@H](C)N` [Example 2-241, 6-(((2S,3R)-2-aminopentan-3-yl)amino)-2-((1,3-dimethyl-1H-pyrazolo[3,4-b]pyridin-5-yl)amino)-5-fluoronicotinamide], `CC[C@H](N)[C@@H](CC)Nc1nc(Nc2cnc3c(c2)c(C)nn3C)c(C(N)=O)cc1F` [Example 2-248, 6-(((3R,4S)-4-aminohexan-3-yl)amino)-2-((1,3-dimethyl-1H-pyrazolo[3,4-b]pyridin-5-yl)amino)-5-fluoronicotinamide] is higher in IC50: 10 to 50 nM for the first, 50 to 100 nM for the second.

First: CCCC[C@@H](Nc1nc(Nc2cnc3c(c2)c(C)nn3C)c(C(N)=O)cc1F)[C@H](C)N [Example 2-244, 6-(((2S,3R)-2-aminoheptan-3-yl)amino)-2-((1,3-dimethyl-1H-pyrazolo[3,4-b]pyridin-5-yl)amino)-5-fluoronicotinamide]
Second: Cc1nn(C)c2ncc(Nc3nc(N[C@H](CC(C)C)[C@H](C)N)c(F)cc3C(N)=O)cc12 [Example 2-245, 6-(((2S,3R)-2-amino-5-methylhexan-3-yl)amino)-2-((1,3-dimethyl-1H-pyrazolo[3,4-b]pyridin-5-yl)amino)-5-fluoronicotinamide]
The IC50 of the first is higher: 10 to 50 nM for the first, less than 10 nM for the second.

First: COc1nn(C)c2ncc(Nc3nc(N[C@@H](CN)CC(C)C)c(F)cc3C(N)=O)cc12 [Example 2-250, (R)-6-((1-amino-4-methylpentan-2-yl)amino)-5-fluoro-2-((3-methoxy-1-methyl-1H-pyrazolo[3,4-b]pyridin-5-yl)amino)nicotinamide]
Second: COC[C@@H](Nc1nc(Nc2cnc3c(c2)c(OC)nn3C)c(C(N)=O)cc1F)[C@H](C)N [Example 2-256, 6-(((2S,3S)-3-amino-1-methoxybutan-2-yl)amino)-5-fluoro-2-((3-methoxy-1-methyl-1H-pyrazolo[3,4-b]pyridin-5-yl)amino)nicotinamide]
The IC50 of the first is lower: less than 10 nM for the first, 50 to 100 nM for the second. The first is the more potent here.

`CC[C@H](N)[C@@H](CC)Nc1nc(Nc2cnc3c(c2)c(OC)nn3C)c(C(N)=O)cc1F` [Example 2-258, 6-(((3R,4S)-4-aminohexan-3-yl)amino)-5-fluoro-2-((3-methoxy-1-methyl-1H-pyrazolo[3,4-b]pyridin-5-yl)amino)nicotinamide] showed an IC50 of 10 to 50 nM.
